Experimental data: article PMC10620162, “Structure—yeast α-glucosidase inhibitory activity relationship of 9-O-berberrubine carboxylates” (Scientific Reports, 2023)
Like-named read-outs stand apart in the source and are kept apart here.

Key:
[1] = design: method as in PMID 27020531; settings: at 20 °C ref 19; cited from earlier work
[2] = design: method as in doi:10.2217/clp.09.41, PMID 16956957; settings: cited from earlier work
HepG2 cells = test system: HepG2 cells; design: method as in PMID 27561717; settings: cited from earlier work; for glucose consumption (GC): HepG2 cells ref 29
yeast α-glucosidase [3] = molecular target: T1, yeast α-glucosidase (Saccharomyces cerevisiae, UniProt P53341); assay: biochemical; settings: for inhibition at 50 µM: read-out: Inhibition at 50 μM (%), 50 μM
T1 construct: purchased Sigma Aldrich
T1 sequence (P53341 whole entry): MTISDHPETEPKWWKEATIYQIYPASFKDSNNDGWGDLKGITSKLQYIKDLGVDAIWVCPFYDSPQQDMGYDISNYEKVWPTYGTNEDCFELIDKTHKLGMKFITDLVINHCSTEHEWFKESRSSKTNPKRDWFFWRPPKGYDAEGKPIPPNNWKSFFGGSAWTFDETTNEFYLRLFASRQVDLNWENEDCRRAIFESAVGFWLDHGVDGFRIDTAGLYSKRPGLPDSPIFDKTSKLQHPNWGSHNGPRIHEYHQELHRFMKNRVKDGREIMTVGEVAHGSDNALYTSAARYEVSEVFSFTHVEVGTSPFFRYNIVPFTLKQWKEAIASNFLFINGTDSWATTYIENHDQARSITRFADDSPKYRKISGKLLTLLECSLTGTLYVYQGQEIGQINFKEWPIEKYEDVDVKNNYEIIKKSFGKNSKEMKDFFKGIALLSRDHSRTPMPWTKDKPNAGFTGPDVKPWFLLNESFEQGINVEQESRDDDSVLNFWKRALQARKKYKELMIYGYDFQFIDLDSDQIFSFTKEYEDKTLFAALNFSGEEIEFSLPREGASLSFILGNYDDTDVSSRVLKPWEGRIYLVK
Experimental: Berberrubine derivatives will be assayed for yeast α-glucosidase inhibitory activity. The protocol described by Ramadhan et al. will be used[37]. Briefly, yeast α-glucosidase (0.1 U/mL) and substrate (1 mM p-nitrophenyl-α-D-glucopyranoside) were dissolved in 0.1 M phosphate buffer (pH 6.9). A 10 μL test sample was pre-incubated with α-glucosidase (40 μL) at 37 °C for 10 min. A substrate solution (50 μL) was then added to the reaction mixture and incubated at 37 °C for an additional 20 min, and terminated by adding 1 M Na2CO3 solution (100 μL). […] The percentage inhibition of activity was calculated as follows: % Inhibition = [(A0 − A1)/A0] × 100, where: A0 is the absorbance without the sample; A1 is the absorbance with the sample. The IC50 value was deduced from the plot of % inhibition versus the concentration of the test sample.

[4] = cytotoxicity study with HEK-293 cells (CellTiter 96 AQueous One); assay type: cell-based; settings: human
Experimental: HEK-293 cells (ATCC® CRL-1573™) were maintained in growth medium consisting of DMEM (Gibco®, Langley, OK) supplemented with 10% fetal bovine serum (Gibco®, Langley, OK), 100 I.U./ml penicillin (Bio Basic Canada®, Ontario, CA), 100 μg/ml streptomycin (Bio Basic Canada®, Ontario, CA), and 10 mM HEPES (4-(2-hydroxyethyl)-1-piperazineethanesulfonic acid) (Sigma Aldrich®, St. Louis, MO) at 37 °C under 5% CO2.
The cytotoxicity of the active compounds (9, 26, 28 and 33) was tested with HEK-293 cells. The cells were seeded at 1 × 10^4 cells per well into 96-well plates in growth medium and incubated overnight. The compounds were prepared at the indicated concentrations in dimethylsulfoxide (DMSO) and added to the cells. Cells were incubated for 48 h before analyzing the cell viability using CellTiter 96® AQueous One Solution Cell Proliferation Assay kit (Promega, USA) according to manufacturer’s protocol. The plate was read at the A490 by VICTORTM X3 microplate reader (PerkinElmer, USA). The 1%DMSO treated cells as a positive control (100% viability). The CC50 values were calculated from nonlinear regression analysis. Results were reported as means and standard error mean (SEM) from three biological independent experiments.

yeast α-glucosidase [5] = molecular target: T1, yeast α-glucosidase; assay: kinetic study of α-glucosidase inhibition (Lineweaver–Burk plots); assay type: biochemical; settings: Lineweaver–Burk plot analysis
Experimental: To further investigate how these 9-O-berberrubine carboxylates interact with yeast α-glucosidase, the inhibition types of four potential compounds, 9, 26, 28 and 33 were studied by using Lineweaver–Burk plot analysis.
The mode of inhibition of α-glucosidase was determined from Lineweaver–Burk plots. The inhibition type was determined using various concentrations of p-NPG substrate in the absence or presence of compounds at different concentrations. The Ki value was determined from secondary plots of slope versus [I].

yeast α-glucosidase [6] = molecular target: yeast α-glucosidase; design: method as in PMID 26917220; settings: cited from earlier work

Structure (SMILES) | glucose consumption (GC) (HepG2 cells) [mM] | inhibition at 50 µM (yeast α-glucosidase [3]) [%] | IC50 (yeast α-glucosidase [6]) [µM] | other results
COc1ccc2cc3[n+](cc2c1OC)CCc1cc2c(cc1-3)OCO2 [BBR, Berberine, reference compound] | 5.04 | < 0 |  | aqueous solubility [1]: ~ 1.8 mg/mL; bioavailability [2]: less than 5%
COc1ccc2cc3[n+](cc2c1OC(=O)C=Cc1ccccc1)CCc1cc2c(cc1-3)OCO2.[Cl-] [Compound 29, 9-(cinnamoyloxy)-10-methoxy-5,6-dihydro-[1,3]dioxolo[4,5-g]isoquinolino[3,2-a]isoquinolin-7-ium chloride] | 6.73 | 88.5 |  | cytotoxicity (HepG2 cells; compared with berberine ref 29): lower than berberine; IC50 (yeast α-glucosidase [3]): 15.1 ± 0.6 µM
COc1ccc2cc3[n+](cc2c1OC(=O)/C=C/C=C/c1ccc2c(c1)OCO2)CCc1cc2c(cc1-3)OCO2.[Cl-] [Compound 33, 9-(((2E,4E)-5-(benzo[d][1,3]dioxol-5-yl)penta-2,4-dienoyl)oxy)-10-methoxy-5,6-dihydro-[1,3]dioxolo[4,5-g]isoquinolino[3,2-a]isoquinolin-7-ium chloride] |  | 98.7 |  | CC50 at 48 h [4]: 17.7 µM; inhibition type (yeast α-glucosidase [5]): competitive; IC50 (yeast α-glucosidase [3]; read-out: IC50): 1.95 ± 0.06 µM
O=c1c2ccccc2oc2cc(O)cc(O)c12 [Compound X1, 1,3-dihydroxyxanthone] |  |  | 145 | 
CC(C)(C)[Si](C)(C)Oc1ccc(C(=O)Oc2cc(O)c3c(=O)c4ccccc4oc3c2)cc1 [Compound X2, 3-Arylacyloxyxanthone] |  |  | 10.6 | 
